Source: patent EP1199078A1, “ANALGESICS” (ONO PHARMACEUTICAL CO., LTD., priority 1999, dated 2000)
Where a name gives a salt, the structure may show the parent alone.

Assays:
formalin model in rats = assay: Formalin test in rats, intrathecal injection; assay type: in vivo, Sprague-Dawley rats; details: for number of flinch: both doses, 2 or 20µg/10µl/rat intrathecally 10min prior to formalin, compared to vehicle treated group
Description: (§1) Eight weeks old male Sprague-Dawley rats were used. According to the method of Yaksh et al., the rat was mounted on the brain stereotaxis apparatus under sodium pentobarbital anesthesia and a polyethylene tube filled with saline was threaded approximately 3cm into intraspinal side through the cisternal incision.
A day after implantation, the rat had no hindlimb paralysis was administered 50µl of 5% formalin subcutaneously and was placed in the observational plastic cage immediately. Formalin injection time was regarded as 0min and for 1min every 5min until 60min, number of leg-up response (flinch) was counted. The compound of formula (IA-1) ((+)-trans-3-imino-5-methyl-7-chloro-2-azabicyclo[4.1.0]heptane Monohydrochloride) of the present invention was dissolved in saline, subsequently the dose of 2 or 20µg/10µl/rat was administered intrathecally via polyethylene tube 10min prior to the formalin injection.

[1] = tested on: Bennett hyperalgesia model in rats; assay: Hyperalgesia to thermostimulus in Bennett model in rats (plantar test), intrathecal injection; assay type: in vivo, Sprague-Dawley rats
Text: as §1, with “Seven” for “Eight”, “al. (J.Physiol. Behav. Vol.17, pp.1031-1036, 1976),” for “al.,”, “about” for “approximately”
A day after implantation, rats had no hindlimb paralysis were restrained in a prostrate position after induction of anesthetization with pentobarbital sodium. According to the method of Bennett and Xie et al. (Pain, Vol.33, pp.87-107, 1988), an incision of 2cm was cut along the skin of the femoral region of the right hindlimb, and the exposed sciatic nerve was constricted with 2 pieces of gut suture at 2 distal sites, and the incision was closed with a piece of silk suture. The left hindlimb was similarly operated on without performing any constriction of the sciatic nerve (sham-operated hindlimb).
Six days after the operation, the response latency to nociceptive thermostimulus was determined with the plantar test device, and rats with hyperalgesia were selected for the drug evaluation study on next day. […] By using a digital timer installed in the plantar testing device, the interval (response latency) from initiation of illumination to the time required for the animal to lift the hindlimb in an attempt to escape was measured. […]

allodynia model in rats = details: treatment of 50 µmol/kg, Neuroreport, Vol. 9, pp.367-372 (1998); cited from earlier work

Compound	number of flinch (formalin model in rats; first phase (0-10min after formalin injection))	analgetic effects (formalin model in rats; formalin test in rats, summary statement)	number of flinch (formalin model in rats; second phase (10-60min after formalin injection))	hyperalgesia to nociceptive thermostimulus ([1]; 0.2, 2 or 20µg/10µl/rat intrathecally 20min prior to plantar test, compared to vehicle treated rats)	analgetic effects ([1]; Bennett model in rats, summary statement)	effect on allodynia model (allodynia model in rats)
C[C@H]1CC(=N)N[C@@H]2[C@H](Cl)[C@@H]21 [IA-1, (+)-trans-3-imino-5-methyl-7-chloro-2-azabicyclo[4.1.0]heptane Monohydrochloride]	decreased	showed analgetic effects	decreased	improved	showed analgetic effects	–
COC(=O)[C@@H](N)CCCNC(=N)N[N+](=O)[O-] [L-NAME]	–	–	–	–	–	showed effect
